The record followed here is patent US8748395B2, “Cell-permeable peptide inhibitors of the JNK signal transduction pathway” (Xigen Inflammation Ltd., priority 2006, dated 2014).

In one assay the test system is guinea pigs. The assay can be described thus: Treatment of noise trauma, hearing threshold shifts by auditory brainstem response. In kind it is in vivo. How it is done: Changes of the hearing threshold level (dB sound pressure level) in guinea pigs following noise trauma (120 dB at 6 kHz during 30 minutes) at 8 kHz, the maximally impacted frequency, measured 20 minutes (temporary threshold shift, TTS, grey) and 15 days post noise exposure (permanent threshold shift). Guinea pigs received D-TAT-IB1(s) in a hyaluronic acid gel deposited onto the cochlear round window membrane either 30 minutes before, 30 minutes after or 4 hours after noise trauma; untreated ears served as control. TTS was measured 20 minutes post noise trauma, while PTS (black), which corresponds to permanent hearing loss, was determined after 15 days.
D-TAT-IB1(s) was applied onto the round window membrane of the cochlea of 3 groups of guinea pigs (each group with 6 animals) in 2 microliters of a gel formulation of 2.6% buffered hyaluronic acid (Hylumed, Genzyme Corp.) at a concentration of 100 μM either 30 minutes before noise trauma (120 dB at 6 kHz during 30 minutes) or 30 minutes or 4 hours thereafter. Untreated ears served as control. Hearing threshold shifts were evaluated by auditory brainstem response measurements 20 minutes after noise trauma (temporary threshold shift, TTS) and 15 days following the trauma (permanent threshold shift, PTS). […] Thus, D-TAT-IB1(s) is a very effective otoprotective compound in case of noise trauma.

The next assay relates to male ICR-CD1 mice. Kind of assay: Neuroprotection after iv administration against focal cerebral ischaemia, transient MCAO model. In kind it is in vivo. How it is done: Transient ischemia in adult mice. Using male ICR-CD1 mice (6 weeks old; 18-37 g; Harlan), we provoked ischemia by introducing a filament from the common carotid artery into the internal carotid and advancing it into the arterial circle, thereby occluding the middle cerebral artery. We measured regional cerebral blood flow by laser Doppler flowmetry, with a probe fixed on the skull throughout the ischemia until 10 min after reperfusion. Rectal temperature was measured and maintained at 37° C. The mice were killed 48 h after reperfusion. Serial cryostat sections 20 μm thick were traced using a computer-microscope system equipped with the Neurolucida program (MicroBrightField) and the volumes of the ischemic area and of the whole brain were calculated (blinded) with the Neuroexplorer program. XG-102 0.3=0.3 mg/kg, XG-102 1=1 mg/kg, XG-102 5=5 mg/kg
The infarct volume sizes (mm^3) after bolus iv administration of placebo and XG-102 0.3, […] 6 hours after reperfusion (30 minutes clamp) in an adult mice model were as follows.

The next assay deals with βTC-3 cells. Kind of assay: Inhibition of IL-1β induced pancreatic β-cell death by TAT-IB peptides. In kind it is cell-based. The following applies: one single addition of peptide 1 μM, IL-1β every two days, 15 days. As to the method: We investigated the effects of the inventive L-TAT-IB(s) peptides on the promotion of β-cell apoptosis elicited by IL-1. PTC-3 cell cultures were incubated for 30 minutes with 1 μM of inventive L-TAT-IB1(s) peptides followed by 10 ng/mL of IL-1. A second addition of peptide (1 μM) was performed 24 hours later. Apoptotic cells were counted after two days of incubation with IL-1β using propidium iodide (red stained cell are dead cells) and Hoechst 33342 (blue stained cell are cells with intact plasma membrane) nuclear staining.
Long term inhibition of IL-1 induced cells death was examined by treating βTC-3 cells as described above, except that incubation of the cells with the peptides and IL-1β was sustained for 12 days. Additional peptides (1 μM) were added each day and additional IL-1β (10 ng/mL) was added every 2 days. […] Taken together, these experiments provide evidence that inventive TAT-IB(s) peptides are biologically active molecules able to prevent the effects of JNK signaling on cell fate.
Inhibition of IL-1β induced pancreatic β-cell death by the inventive D-TAT-IB1(s) peptide was analyzed. βTC-3 cells were incubated as described above for 30 minutes with one single addition of the indicated peptides (1, μM), then IL-1 (10 ng/ml) was added.
Apoptotic cells were then counted after two days of incubation with IL-1β by use of Propidium Iodide and Hoechst 33342 nuclear staining. A minimum of 1,000 cells were counted for each experiment. Standard Error of the Means (SEM) are indicated, n=5.
Long term inhibition of IL-1P induced cell-death by the D-TAT-IB1 peptide was also analyzed. βTC-3 cells were incubated as above for 30 minutes with one single addition of the indicated peptides (1 μM), then IL-1β (10 ng/ml) was added, followed by addition of the cytokine every two days. Apoptotic cells were then counted after 15 days of incubation with IL-1 by use of propidium iodide and Hoechst 33342 nuclear staining. […] A minimum of 1.000 cells were counted for each experiment.

In another assay the test system is 12-days-old rats. Kind of assay: Neuroprotection against focal cerebral ischemia, permanent MCAO model. It is filed as in vivo. The text has this: Focal cerebral ischemia was induced in 12-days-old rats. Pups were anesthetized in an induction chamber with 2% isoflurane and during the operation anaesthesia was maintained using a mask under 2% isoflurane. MCAO was induced by electrocoagulating a main branch of the middle cerebral artery (MCA). Rats were placed on the right side, and an oblique dermal incision was made between the ear and eye. After excision of the temporal muscle, the cranial bone was removed from the frontal suture to a level below the zygomatic arch. […] The cranial skin incision was then closed. Rat pups were then placed in an incubator maintained at 37° C. until they awoke, and were then transferred to their mother.
6 hours later an inventive chimeric D-TAT-IB1(s) peptide according to SEQ ID NO: 11 was injected intraperitoneally. 24 hours after the coagulation, the rats were anesthetized with chloral hydrate and perfused through the ascending aorta with 4% paraformaldehyde in PBS. Brains were then removed and kept for 2 hours in the same fixative solution, and placed in a gradient of 30% sucrose in PBS for about 15 hours at 4° C. Brains were frozen in isopentane (−40° C.) and stored at −20° C. Coronal cryostat sections of 50 μm were collected on glass slides. The sections were stained with cresyl violet. Each tenth section was analyzed and the total volume of the lesion was calculated using the Neuroleucida programme. In the control group A, the mean lesion volume was 21.47 mm^3. […] A significant statistic difference is observed between group A and groups C, E and F (one-tailed t-test, p=0.030, p=0.002, p=0.001 respectively).

Entries after “also recorded” stand apart in the source; their conditions may differ. Square brackets hold non-standard residues; d marks the D form. Peptide text beside a SMILES is read from it.

On to `CC(C)C[C@@H](NC(=O)[C@@H](Cc1ccccc1)NC(=O)[C@H]1CCCN1C(=O)[C@@H](CCC(N)=O)NC(=O)[C@H](NC(=O)[C@H]1CCCN1C(=O)[C@@H](CCCNC(=N)N)NC(=O)[C@@H](CO)NC(=O)[C@@H](CCC(N)=O)NC(=O)[C@H](N)CC(=O)O)C(C)C)C(=O)N[C@H](CC(N)=O)C(=O)N[C@H](CC(C)C)C(=O)N[C@@H](C(=O)N[C@@H](C(=O)N1CCC[C@@H]1C(=O)N[C@H](CCCNC(=N)N)C(=O)N[C@H](CCCCN)C(=O)N1CCC[C@@H]1C(=O)N[C@H](CCCNC(=N)N)C(=O)N1CCC[C@@H]1C(=O)N1CCC[C@@H]1C(=O)N[C@H](CCCNC(=N)N)C(=O)N[C@H](CCCNC(=N)N)C(=O)N[C@H](CCCNC(=N)N)C(=O)N[C@H](CCC(N)=O)C(=O)N[C@H](CCCNC(=N)N)C(=O)N[C@H](CCCNC(=N)N)C(=O)N[C@H](CCCCN)C(=O)N[C@H](CCCCN)C(=O)N[C@H](CCCNC(=N)N)C(=O)NCC(=O)O)[C@H](C)O)[C@H](C)O` [D-TAT-IB1(s)] (H-[dD][dQ][dS][dR][dP][dV][dQ][dP][dF][dL][dN][dL][dT][dT][dP][dR][dK][dP][dR][dP][dP][dR][dR][dR][dQ][dR][dR][dK][dK][dR]G-OH), for which the “protection against permanent hearing loss (PTS, 15 days)” value in the assay on guinea pigs (100 μM in hyaluronic acid gel on round window membrane, 30 minutes before, 30 minutes or 4 hours after noise trauma) is “protects substantially against permanent hearing loss; also recorded: protected against permanent hearing loss even if applied after exposure to excessive noise”. In addition, the “PTS in treated ears versus untreated control ears” value with guinea pigs (administration 30 minutes and 4 hours post trauma, 8 kHz) is given as “significantly lower”. Further, the “infarct volume sizes, moyenne” value in the assay with male ICR-CD1 mice (0.3 mg/kg bolus iv 6 hours after reperfusion (30 minutes clamp), n = 5) amounted to 16 mm^3; in the assay with male ICR-CD1 mice (1 mg/kg bolus iv 6 hours after reperfusion (30 minutes clamp), n = 1) it was 16 mm^3; in the assay with male ICR-CD1 mice (XG102 3, bolus iv 6 hours after reperfusion (30 minutes clamp), n = 5), 15 mm^3. Moreover, the neuroprotection entry in the assay on male ICR-CD1 mice (i.v. administration, mice killed 48 h after reperfusion) was “provides efficient neuroprotection”. Also, the “long term (15 day) protection against IL-1β induced cell death” value in the assay on βTC-3 cells is “able to confer long term (15 day) protection”. Moreover, in the assay on 12-days-old rats (dose of 1 mg/kg, 0.003 mg/kg and 0.0003), the “cerebral protection compared to saline group” value is reported as “total sample was not large enough to reach a significant difference”. For the same molecule, in the assay on 12-days-old rats (dose of 11 mg/kg, 3 mg/kg, 0.3 mg/kg and 0.03 mg/kg i.p.), the cerebral protection result is reported as “contributes to a cerebral protection”. In addition, the “dose at which the best protection is observed” value in the assay with 12-days-old rats (i.p. 6 hours after MCAO) was 0.03 mg/kg. Besides, in the assay with 12-days-old rats (i.p. 6 hours after MCAO, analysis at 24 hours, all treated groups), the “mean lesion volume versus control group” value is “lower mean than the control group”.
